Experimental data published in patent US20210255193A1, “LYSINE REACTIVE PROBES AND USES THEREOF” (The Scripps Research Institute, priority 2017, published 2021).

What was measured:
Experiment in all cases: competitive isoTOP-ABPP
Assay type in all cases: binding
[1] = molecular target: T1, ATP6V1F V-type proton ATPase subunit F (Homo sapiens, UniProt Q16864); settings: for isoTOP-ABPP ratio (R) at liganded lysine Q16864_K6: sol, 231
T1 construct: isoTOP-ABPP experiments performed in cell lysates (in vitro); endogenous in cells; host or cells: soluble proteome of human cancer cell lines (MDA-MB-231; Ramos and Jurkat also prepared)
How it was run: (§1)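 Lysine engagement is reported as R, the MS1 peak-area ratio of heavy-tagged DMSO to light-tagged compound samples. Final fragment concentrations were 50 μM for activated esters and 100 μM for guanidinylating agents; STP-alkyne probe 0.1 mM, 1 h.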

[2] = molecular target: T2, NUDT22 Nucleoside diphosphate-linked moiety X motif 22 (Homo sapiens, UniProt Q9BRQ3); settings: for isoTOP-ABPP ratio (R) at liganded lysine Q9BRQ3_K60: 50 uM, in vitro, sol, 231
T2 construct: isoTOP-ABPP experiments performed in cell lysates (in vitro); endogenous in cells; host or cells: soluble proteome of human cancer cell lines (MDA-MB-231; Ramos and Jurkat also prepared)
T2 sequence (Q9BRQ3 1-303): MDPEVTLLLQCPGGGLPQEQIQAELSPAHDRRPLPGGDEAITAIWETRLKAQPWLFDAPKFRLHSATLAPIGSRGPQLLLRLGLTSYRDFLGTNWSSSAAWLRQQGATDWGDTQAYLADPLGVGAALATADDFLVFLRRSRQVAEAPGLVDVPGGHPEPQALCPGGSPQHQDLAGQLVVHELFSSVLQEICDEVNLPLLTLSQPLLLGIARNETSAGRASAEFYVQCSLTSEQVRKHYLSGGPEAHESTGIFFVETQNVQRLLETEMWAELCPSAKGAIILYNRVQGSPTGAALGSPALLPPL
How it was run: as §1

TTR Transthyretin = molecular target: T3, TTR Transthyretin (Homo sapiens, UniProt P02766); settings: for isoTOP-ABPP ratio (R) at liganded lysine P02766_K35: sol, 231
T3 construct: isoTOP-ABPP experiments performed in cell lysates (in vitro); endogenous in cells; host or cells: MDA-MB-231 soluble lysate
How it was run: as §1

[3] = molecular target: T4, NLN Neurolysin, mitochondrial (Homo sapiens, UniProt Q9BYT8); settings: for isoTOP-ABPP ratio (R) at liganded lysine Q9BYT8_K253: sol, 231
T4 construct: isoTOP-ABPP experiments performed in cell lysates (in vitro); endogenous in cells; host or cells: soluble proteome of human cancer cell lines (MDA-MB-231; Ramos and Jurkat also prepared)
How it was run: as §1

[4] = molecular target: T5, LRRC20 Leucine-rich repeat-containing protein 20 (Homo sapiens, UniProt Q8TCA0)
T5 construct: isoTOP-ABPP experiments performed in cell lysates (in vitro); endogenous in cells; host or cells: soluble proteome of human cancer cell lines (MDA-MB-231; Ramos and Jurkat also prepared)
T5 sequence (Q8TCA0 1-184): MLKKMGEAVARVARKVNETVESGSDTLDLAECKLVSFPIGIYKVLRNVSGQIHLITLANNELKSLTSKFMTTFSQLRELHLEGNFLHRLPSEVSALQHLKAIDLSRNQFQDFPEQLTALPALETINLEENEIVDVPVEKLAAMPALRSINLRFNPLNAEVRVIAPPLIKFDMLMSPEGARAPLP
How it was run: as §1

[5] = molecular target: T6, EEF1G Elongation factor 1-gamma (Homo sapiens, UniProt P26641)
T6 construct: isoTOP-ABPP experiments performed in cell lysates (in vitro); endogenous in cells; host or cells: soluble proteome of human cancer cell lines (MDA-MB-231; Ramos and Jurkat also prepared)
How it was run: as §1

[6] = molecular target: T7, TSTA3 GDP-L-fucose synthase (Homo sapiens, UniProt Q13630); settings: for isoTOP-ABPP ratio (R) at liganded lysine Q13630_K108: sol, 231
T7 construct: isoTOP-ABPP experiments performed in cell lysates (in vitro); endogenous in cells; host or cells: soluble proteome of human cancer cell lines (MDA-MB-231, Ramos, Jurkat)
How it was run: as §1

[7] = molecular target: T8, CDK2 Cyclin-dependent kinase 2 (Homo sapiens, UniProt P24941); settings: for isoTOP-ABPP ratio (R) at liganded lysine P24941_K33: sol, 231
T8 construct: isoTOP-ABPP experiments performed in cell lysates (in vitro); endogenous in cells; host or cells: soluble proteome of human cancer cell lines (MDA-MB-231; Ramos and Jurkat also prepared)
How it was run: as §1

DTYMK Thymidylate kinase = molecular target: T9, DTYMK Thymidylate kinase (Homo sapiens, UniProt P23919); settings: 50 uM_231_sol_in vitro
T9 construct: isoTOP-ABPP experiments performed in cell lysates (in vitro); endogenous in cells; host or cells: soluble proteome of human cancer cell lines (MDA-MB-231; Ramos and Jurkat also prepared)
T9 sequence (P23919 1-212): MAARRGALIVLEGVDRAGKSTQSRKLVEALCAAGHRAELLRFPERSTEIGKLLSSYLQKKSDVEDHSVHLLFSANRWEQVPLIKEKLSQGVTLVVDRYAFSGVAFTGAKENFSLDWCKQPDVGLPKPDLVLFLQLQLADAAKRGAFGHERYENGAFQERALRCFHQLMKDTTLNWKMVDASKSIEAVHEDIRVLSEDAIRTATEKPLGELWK
How it was run: as §1

T6 sequence (P26641 whole entry): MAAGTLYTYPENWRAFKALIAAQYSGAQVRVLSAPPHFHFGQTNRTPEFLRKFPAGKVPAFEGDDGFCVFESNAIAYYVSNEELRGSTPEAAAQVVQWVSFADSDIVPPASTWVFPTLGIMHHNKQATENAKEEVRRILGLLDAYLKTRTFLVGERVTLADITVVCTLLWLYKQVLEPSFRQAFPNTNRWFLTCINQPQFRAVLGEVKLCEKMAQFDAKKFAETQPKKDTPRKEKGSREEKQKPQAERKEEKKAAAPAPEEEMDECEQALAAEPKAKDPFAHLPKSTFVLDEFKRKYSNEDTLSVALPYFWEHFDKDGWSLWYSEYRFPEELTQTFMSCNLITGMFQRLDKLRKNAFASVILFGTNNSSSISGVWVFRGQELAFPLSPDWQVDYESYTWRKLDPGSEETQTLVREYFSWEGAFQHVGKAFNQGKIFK
T1 sequence (Q16864 whole entry): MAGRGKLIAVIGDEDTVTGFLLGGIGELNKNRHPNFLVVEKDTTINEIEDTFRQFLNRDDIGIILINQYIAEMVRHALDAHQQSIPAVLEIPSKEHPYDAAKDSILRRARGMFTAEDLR
T7 sequence (Q13630 whole entry): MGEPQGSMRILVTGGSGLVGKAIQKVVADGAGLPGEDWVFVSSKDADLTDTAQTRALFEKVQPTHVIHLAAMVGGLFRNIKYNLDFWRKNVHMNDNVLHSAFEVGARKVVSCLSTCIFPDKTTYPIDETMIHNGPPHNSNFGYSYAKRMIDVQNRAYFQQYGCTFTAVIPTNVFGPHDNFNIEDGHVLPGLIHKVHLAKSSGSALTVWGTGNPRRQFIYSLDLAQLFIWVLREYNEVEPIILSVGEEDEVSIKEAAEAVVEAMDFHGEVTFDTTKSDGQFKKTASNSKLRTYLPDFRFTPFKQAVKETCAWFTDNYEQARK
T4 sequence (Q9BYT8 38-704): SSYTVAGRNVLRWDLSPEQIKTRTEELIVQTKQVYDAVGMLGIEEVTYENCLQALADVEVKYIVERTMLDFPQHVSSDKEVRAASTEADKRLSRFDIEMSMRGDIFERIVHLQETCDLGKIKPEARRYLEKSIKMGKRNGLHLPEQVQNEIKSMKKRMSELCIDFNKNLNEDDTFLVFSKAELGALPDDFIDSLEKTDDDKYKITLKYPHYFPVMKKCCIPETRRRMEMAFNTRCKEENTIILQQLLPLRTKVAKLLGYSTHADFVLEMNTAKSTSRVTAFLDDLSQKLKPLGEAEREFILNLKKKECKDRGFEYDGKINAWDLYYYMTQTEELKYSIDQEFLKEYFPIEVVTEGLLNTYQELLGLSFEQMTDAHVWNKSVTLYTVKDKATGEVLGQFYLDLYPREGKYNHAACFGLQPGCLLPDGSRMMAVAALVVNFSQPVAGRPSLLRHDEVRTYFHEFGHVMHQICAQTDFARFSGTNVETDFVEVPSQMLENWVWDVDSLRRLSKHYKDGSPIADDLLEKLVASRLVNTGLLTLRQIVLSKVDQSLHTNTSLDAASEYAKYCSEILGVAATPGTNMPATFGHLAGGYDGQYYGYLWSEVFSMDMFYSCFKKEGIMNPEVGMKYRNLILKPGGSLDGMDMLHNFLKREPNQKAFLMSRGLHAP

`O=C(Oc1ccc([N+](=O)[O-])cc1[N+](=O)[O-])C(c1ccccc1)(c1ccccc1)c1ccccc1` [fragment 42, 2,4-Dinitrophenyl 2,2,2-triphenylacetate] was tested, and the “isoTOP-ABPP ratio (R) at liganded lysine Q16864_K6” value ([1]; 50 uM, in vitro) was 1.0, the “isoTOP-ABPP ratio (R) at liganded lysine Q9BRQ3_K60” value [2] was 0.8 and the “isoTOP-ABPP ratio (R) at liganded lysine P02766_K35” value (TTR Transthyretin; 50 uM, in vitro) was 1.0. For the same compound, the “isoTOP-ABPP ratio (R) at liganded lysine Q9BYT8_K253” value ([3]; 50 uM, in vitro) was 0.8, the “isoTOP-ABPP ratio (R) at liganded lysine Q8TCA0_K43” value ([4]; 50 uM, in vitro, sol, 231) was 1.3 and the “isoTOP-ABPP ratio (R) at liganded lysine P26641_K227” value ([5]; 50 uM, in vitro, sol, 231) was 0.7. For the same compound, the “isoTOP-ABPP ratio (R) at liganded lysine Q13630_K108” value ([6]; 50 uM, in vitro) was 1.0 and the “isoTOP-ABPP ratio (R) at liganded lysine P24941_K33” value ([7]; 50 uM, in vitro) was 0.9.

`O=C(Oc1ccc([N+](=O)[O-])cc1[N+](=O)[O-])c1ccccc1Nc1cccc(C(F)(F)F)c1` [fragment 40, 2,4-Dinitrophenyl 2-((3-(trifluoromethyl)phenyl)amino)benzoate] was tested, and the “isoTOP-ABPP ratio (R) at liganded lysine Q16864_K6” value ([1]; 50 uM, in vitro) was 0.9, the “isoTOP-ABPP ratio (R) at liganded lysine Q9BRQ3_K60” value [2] was 0.9 and the “isoTOP-ABPP ratio (R) at liganded lysine Q9BYT8_K253” value ([3]; 50 uM, in vitro) was 0.9. For the same compound, the “isoTOP-ABPP ratio (R) at liganded lysine Q13630_K108” value ([6]; 50 uM, in vitro) was 0.9 and the “isoTOP-ABPP ratio (R) at liganded lysine P24941_K33” value ([7]; 50 uM, in vitro) was 1.0.

`Cn1cc(CC(=O)Oc2c(F)c(F)c(F)c(F)c2F)c2ccccc21` [fragment 22, Pentafluorophenyl 2-(1-methyl-1H-indol-3-yl)acetate] was tested, and the “R value (DMSO/fragment) for probe 1 labeling” value (from here on “R value (DMSO/fragment)”) ([1]; Q16864_K6, 50 uM, 231 sol, in vitro) was 1.1, the “R value (DMSO/fragment)” value (TTR Transthyretin; P02766_K35, 50 uM, 231 sol, in vitro) was 2.6 and the “R value (DMSO/fragment)” value ([3]; Q9BYT8_K253, 50 uM, 231 sol, in vitro) was 1.5. For the same compound, the “R value (DMSO/fragment)” value ([4]; Q8TCA0_K43, 50 uM, 231 sol, in vitro) was 0.9, the “R value (DMSO/fragment)” value ([6]; Q13630_K108, 50 uM, 231 sol, in vitro) was 1.1 and the “R value (DMSO/fragment)” value ([7]; P24941_K33, 50 uM, 231 sol, in vitro) was 1.5.

`O=C(Oc1c(F)c(F)c(C(F)(F)F)c(F)c1F)c1cc(C(F)(F)F)cc(C(F)(F)F)c1` [fragment 47, 2,3,5,6-Tetrafluoro-4-(trifluoromethyl)phenyl 3,5-bis(trifluoromethyl)benzoate] was tested, and the “isoTOP-ABPP ratio, lysine Q9BRQ3_K60” value ([2]; 50 uM_231_sol_in vitro) was 1.1, the “isoTOP-ABPP ratio, lysine P02766_K35” value (TTR Transthyretin; 50 uM_231_sol_in vitro) was 1.6 and the “isoTOP-ABPP ratio, lysine P23919_K118” value (DTYMK Thymidylate kinase) was 0.9.

In the case of `O=C(CC12CC3CC(CC(C3)C1)C2)Oc1ccc([N+](=O)[O-])cc1[N+](=O)[O-]` [fragment 38, 2,4-Dinitrophenyl 2-(adamantan-1-yl)acetate], the “isoTOP-ABPP ratio (R) at liganded lysine Q16864_K6” value ([1]; 50 uM, in vitro) is reported as 1.0, the “isoTOP-ABPP ratio (R) at liganded lysine P02766_K35” value (TTR Transthyretin; 50 uM, in vitro) is reported as 1.2 and the “isoTOP-ABPP ratio (R) at liganded lysine Q9BYT8_K253” value ([3]; 50 uM, in vitro) is reported as 0.8. The “isoTOP-ABPP ratio (R) at liganded lysine Q13630_K108” value ([6]; 50 uM, in vitro) was 0.9 and the “isoTOP-ABPP ratio (R) at liganded lysine P24941_K33” value ([7]; 50 uM, in vitro) was 0.9.

In the case of `O=C(ON1C(=O)CCC1=O)c1cc(C(F)(F)F)cc(C(F)(F)F)c1` [fragment 46, 3,5-Bis(trifluoromethyl)benzoic acid NHS ester], the “isoTOP-ABPP ratio, lysine Q16864_K6” value ([1]; 50 uM_231_sol_in vitro) is reported as 20.0, the “isoTOP-ABPP ratio, lysine Q9BRQ3_K60” value ([2]; 50 uM_231_sol_in vitro) is reported as 0.9 and the “isoTOP-ABPP ratio, lysine P02766_K35” value (TTR Transthyretin; 50 uM_231_sol_in vitro) is reported as 2.3. The “isoTOP-ABPP ratio, lysine Q9BYT8_K253” value ([3]; 50 uM_231_sol_in vitro) was 1.5, the “isoTOP-ABPP ratio, lysine Q8TCA0_K43” value ([4]; 50 uM_231_sol_in vitro) was 1.3 and the “isoTOP-ABPP ratio, lysine P26641_K227” value ([5]; 50 uM_231_sol_in vitro) was 0.6. The “isoTOP-ABPP ratio, lysine Q13630_K108” value ([6]; 50 uM_231_sol_in vitro) was 2.7 and the “isoTOP-ABPP ratio, lysine P24941_K33” value ([7]; 50 uM_231_sol_in vitro) was 0.9.

`O=C(Oc1c(F)c(F)cc(F)c1F)c1cc(C(F)(F)F)cc(C(F)(F)F)c1` [fragment 48, 2,3,5,6-Tetrafluorophenyl 3,5-bis(trifluoromethyl)benzoate] was tested, and the “isoTOP-ABPP ratio, lysine P23919_K118” value (DTYMK Thymidylate kinase) was 0.6.

For `CC(C)(C)OC(=O)N=C(NC(=O)OC(C)(C)C)n1cccn1` [fragment 50, reference compound], the “isoTOP-ABPP ratio, lysine Q16864_K6” value ([1]; 100 uM_231_sol_in vitro) was 1.4, the “isoTOP-ABPP ratio, lysine Q9BRQ3_K60” value ([2]; 100 uM_231_sol_in vitro) was 1.0 and the “isoTOP-ABPP ratio, lysine P02766_K35” value (TTR Transthyretin; 100 uM_231_sol_in vitro) was 2.1. For the same compound, the “isoTOP-ABPP ratio, lysine Q9BYT8_K253” value ([3]; 100 uM_231_sol_in vitro) was 1.2, the “isoTOP-ABPP ratio, lysine Q8TCA0_K43” value ([4]; 100 uM_231_sol_in vitro) was 1.3 and the “isoTOP-ABPP ratio, lysine P26641_K227” value ([5]; 100 uM_231_sol_in vitro) was 1.2. The “isoTOP-ABPP ratio, lysine Q13630_K108” value ([6]; 100 uM_231_sol_in vitro) was 1.0 and the “isoTOP-ABPP ratio, lysine P24941_K33” value ([7]; 100 uM_231_sol_in vitro) was 2.3.
